Experimental data from patent US20060079510A1, “Use of PARP-1 inhibitors for protecting tumorcidal lymphocytes from apoptosis” (priority 2004, published 2006).
“Also recorded” adds a separate entry of the source.

Experiments:
[1] = test system: peripheral blood lymphocytes; assay: Oxidant-induced cell death in lymphocytes incubated with mononuclear phagocytes or hydrogen peroxide, flow cytometry; assay type: cell-based, human
Procedure: Peripheral venous blood was obtained as freshly prepared leukopacks from healthy blood donors at the Blood Centre, Sahlgren's Hospital, Göteborg, Sweden, to study the activation characteristics of cytotoxic lymphocytes in the presence and absence of MO, and ROM inhibitors. The blood (65 ml) was mixed with 92.5 ml Iscove's medium, 35 ml 6% Dextran (Kabi Pharmacia, Stockholm, Sweden) and 7.5 ml acid citrate dextrose (ACD) (Baxter, Deerfield, Ill.). After incubation for 15 minutes at room temperature, the supernatant was carefully layered onto Ficoll-Hypaque (Lymphoprep, Myegaard, Norway). Mononuclear cells (MNC) were collected at the interface after centrifugation at 380 g for 15 minutes at room temperature, washed twice in PBS and resuspended in Iscove's medium supplemented with 10% human AB^+ serum. During all further separation of cells, the cell suspensions were kept in siliconized test tubes (Vacuette, Greiner, Stockholm).
The MNC were further separated into lymphocyte and monocyte (MO) populations using the counter-current centrifugal elutriation (CCE) technique originally described by Yasaka and co-workers (Yasaka, T. et al., J. Immunol., 127:1515) with modifications as described in Hansson, M., et al. (J. Immunol., 156: 42 (1996); hereby incorporated by reference). Briefly, the sedimentation rate of cells in a spinning rotor was balanced by a counter-directed flow through the chamber. By slowly increasing the flow rate, fractions of cells of well-defined sizes were collected. The MNC were resuspended in elutration buffer containing 0.5% BSA (ICN Biomedicals Inc., Aurora, Ohio) and 0.1% EDTA (VWR, Göteborg, Sweden) in buffered NaCl and fed into a Beckman J2-21 ultracentrifuge with a JE-6B rotor (Bechman Coulter Inc., Fullerton, Calif.) at 2100 rpm. A fraction with >90% MO was obtained at a flow rate of 19 ml/min. A lymphocyte fraction enriched for NK-cells (CD3^−/56^+ phenotype) and T-cells (CD3^+/56^−) was recovered at flow rates of 14-15 ml/min. This fraction contained <3% MO and consisted of CD3ε^−/56^+ NK-cells (45-50%), CD3ε^+/56^− T-cells (35-40%), CD3ε^−/56^− cells (5-10%), and CD3ε^+/56^+ cells (1-5%), as judged by flow cytometry. In some experiments, dynabeads (Dynal A/S, Oslo, Norway) coated with anti-CD56 were used to obtain purified lymphocyte preparations of T-cells, as described in detail by Hansson, M., et al., incorporated above.
Briefly, lymphocytes were incubated overnight with autologous mononuclear phagocytes in the presence or absence of catalase (200 U/ml), histamine ([…]) or DPI (3 μM).
Briefly, lymphocytes, pretreated with PJ34 (250 ηM), Z-VAD.fmk (100 μM) or medium, were subjected to mononuclear phagocytes at different Mo/Ly ratios (FIG. 5A) or to different concentrations of H2O2 (FIG. 5C). FIGS. 5A-5D illustrate that PJ34 protected lymphocytes from cell death induced by phagocytes ([…], ratio 1:1, p<0.05) and hydrogen peroxide (FIGS. 5C and 5D, 250 μM, p<0.001).

[2] = test system: NK cells; conditions: cited from earlier work
[3] = test system: NK cells; conditions: histamine and IL-2; cited from earlier work
[4] = test system: melanoma cell lines; conditions: histamine and IL-2 given prior to inoculation; cited from earlier work
[5] = test system: herpes simplex virus (HSV); conditions: cited from earlier work
[6] = test system: lymphocytes; assay: Altered mitochondrial transmembrane potential (Mitochondrial Membrane Sensor Kit) and To-Pro-3 staining; assay type: cell-based, human; conditions: H2O2 250 μM or mononuclear phagocytes; PJ34 250 μM as printed
Procedure: A Mitochondrial Membrane Sensor Kit (BD Clontech) was used to identify cells with altered mitochondrial transmembrane potential according to the manufacturer's protocol.
Briefly, lymphocytes exposed to hydrogen peroxide (250 μM) were assayed for altered mitochondrial transmembrane potential and plasma membrane integrity at various time points. Depolarization of the Ψm is seen as an increase in green fluorescence (mitosensor monomers).

[7] = test system: human lymphocytes; assay: Large-scale DNA fragmentation, pulsed-field gel electrophoresis; assay type: cell-based; conditions: cells treated with Z-VAD.fmk and 250 μM H2O2, 16 hours
Procedure: Translocation of AIF to the nucleus has been associated with large-scale DNA fragmentation. The observed accumulation of nuclear AIF after challenge with H2O2 led to investigation as to whether large-scale DNA fragmentation accompanied lymphocyte cell death. To that end, lymphocytes were exposed to H2O2, cast into agarose plugs and analyzed using pulsed-field gel electrophoresis. Briefly, human lymphocytes were exposed to 250 μM H2O2 and incubated overnight at 37° C. After 16 hours, the cells were washed twice with PBS and resuspended in PBS. Cells were mixed with an equal volume of 2% low melting point agarose and cast into agarose plugs. After solidifying, plugs were incubated overnight at 56° C. in a buffer containing 0.2% Sodium deoxycholate and 0.5% N-lauroyl sarcosine supplemented with 0.5 mg/ml proteinase K.

Compound	protection of lymphocytes from phagocyte-induced cell death (FIG. 1) ([1]; overnight with autologous mononuclear phagocytes, catalase 200 U/ml, histamine, DPI 3 μM, p<0.001, n=4)	monocyte mediated NK cell suppression ([2]; histamine and IL-2)	NK cell cytotoxicity ([2]; histamine and IL-2 in the presence of monocytes, relative to IL-2 only)	effect on NK mediated cytotoxicity ([2]; in the absence of monocytes)	granulocyte mediated NK cell suppression [3]	development of lung metastatic foci [4]	survival time, combination ([5]; combination of histamine and IL-2)	survival time ([5]; single dose of histamine)	protection of lymphocytes from phagocyte- or hydrogen peroxide-induced (oxidant/ROS-induced) cell death / apoptosis ([1]; pretreatment, PJ34 250 nM, DPQ 3 μM, Z-VAD.fmk 100 μM, overnight incubation with phagocytes or H2O2)	protection from oxidant-induced alterations of Ψm (FIG. 4) [6]	DNA fragments on pulsed-field gel (FIG. 7) [7]
NCCc1c[nH]cn1 [histamine]	fully protected	complete or nearly complete abrogation	elevated levels of cytotoxicity	no effect or weakly suppressed	only partially removed	protected	synergistic effect	prolong survival time			
Z-VAD.fmk									only partially protected; also recorded: failed to protect	failed to display any significant protective effect	distinct band (approx. 50 kb)
